From article PMC11480411, “Mucosal sugars delineate pyrazine vs pyrazinone autoinducer signaling in Klebsiella oxytoca” (Nature Communications, 2024)

Experiments:
Experiment in all cases: PRESTO-Tango GPCR screen
Type in all cases: cell-based
Settings in all cases: 100 µM
NMUR1 = target: T1, NMUR1 (Homo sapiens, UniProt Q9HB89)
T1 construct: purchased PRESTO-Tango GPCR kit (Roth lab / Addgene)
Description: (§1) The PRESTO-Tango analyses were performed as previously published. Briefly, HTLA cells, a HEK293 cell line that stably expresses β-arrestin-TEV and tTA-Luciferase (a kind gift from Gilad Barnea, Brown University), were plated in 96-well tissue culture plates (Eppendorf) in DMEM containing 10% FBS and 1% Penicillin/Streptomycin. One day after plating (after reaching approximately 90% confluence), 200 ng per well GPCR-Tango plasmids[37] in 20 μL DMEM were individually mixed with 400 ng polyethylenimine (Polysciences) in an equal volume of DMEM and incubated for 20 min at room temperature before adding the transfection mixture to the HTLA cells. 16-24 h after transfection, medium was replaced with 180 μL fresh DMEM containing 1% Penicillin/Streptomycin and 10 mM HEPES and 20 μL of 3 or 3-Homo to reach a final concentration of 100 μM. Supernatants were aspirated 20 h after stimulation and 50 μl per well of Bright-Glo solution (Promega) diluted 20-fold with PBS containing 20 mM HEPES was added into each well. After 15 min incubation at room temperature, luminescence was quantified using a Spectramax i3x microplate reader (Molecular Devices). Activation fold for each sample was calculated by dividing relative luminescence units (RLU) for each condition by RLUs from PBS control. Dose response curves of each chemical were performed in a similar way with varying the ligand concentration from 10^−4 M to 10^−15 M.

HTR2A = target: T2, HTR2A (Homo sapiens, UniProt P28223)
T2 construct: purchased PRESTO-Tango GPCR kit (Roth lab / Addgene)
Description: as §1

GRM6 = target: T3, GRM6 (Homo sapiens, UniProt O15303)
T3 construct: purchased PRESTO-Tango GPCR kit (Roth lab / Addgene)
Description: as §1

C3AR1 = target: T4, C3AR1 (Homo sapiens, UniProt Q16581)
T4 construct: purchased PRESTO-Tango GPCR kit (Roth lab / Addgene)
Description: as §1

DRD5 = target: T5, DRD5 (Homo sapiens, UniProt P21918)
T5 construct: purchased PRESTO-Tango GPCR kit (Roth lab / Addgene)
Description: as §1

RXFP4 = target: T6, RXFP4 (Homo sapiens, UniProt Q8TDU9)
T6 construct: purchased PRESTO-Tango GPCR kit (Roth lab / Addgene)
Description: as §1

AVPR1A = target: T7, AVPR1A (Homo sapiens, UniProt P37288)
T7 construct: purchased PRESTO-Tango GPCR kit (Roth lab / Addgene)
Description: as §1

ELTD1 = target: T8, ELTD1 (Homo sapiens, UniProt Q9HBW9)
T8 construct: purchased PRESTO-Tango GPCR kit (Roth lab / Addgene)
Description: as §1

GPR174 = target: T9, GPR174 (Homo sapiens, UniProt Q9BXC1)
T9 construct: purchased PRESTO-Tango GPCR kit (Roth lab / Addgene)
Description: as §1

GPR160 = target: T10, GPR160 (Homo sapiens, UniProt Q9UJ42)
T10 construct: purchased PRESTO-Tango GPCR kit (Roth lab / Addgene)
Description: as §1

GPR37L1 = target: T11, GPR37L1 (Homo sapiens, UniProt O60883)
T11 construct: purchased PRESTO-Tango GPCR kit (Roth lab / Addgene)
Description: as §1

ADRA2C = target: T12, ADRA2C (Homo sapiens, UniProt P18825)
T12 construct: purchased PRESTO-Tango GPCR kit (Roth lab / Addgene)
Description: as §1

KISSPEPTIN-R = target: T13, KISSPEPTIN-R (Homo sapiens, UniProt Q969F8)
T13 construct: purchased PRESTO-Tango GPCR kit (Roth lab / Addgene)
Description: as §1

CHRM3 = target: T14, CHRM3 (Homo sapiens, UniProt P20309)
T14 construct: purchased PRESTO-Tango GPCR kit (Roth lab / Addgene)
Description: as §1

GPR133 = target: T15, GPR133 (Homo sapiens, UniProt Q6QNK2)
T15 construct: purchased PRESTO-Tango GPCR kit (Roth lab / Addgene)
Description: as §1

GRM7 = target: T16, GRM7 (Homo sapiens, UniProt Q14831)
T16 construct: purchased PRESTO-Tango GPCR kit (Roth lab / Addgene)
Description: as §1

S1PR4 = target: T17, S1PR4 (Homo sapiens, UniProt O95977)
T17 construct: purchased PRESTO-Tango GPCR kit (Roth lab / Addgene)
Description: as §1

F2RL2 = target: T18, F2RL2 (Homo sapiens, UniProt O00254)
T18 construct: purchased PRESTO-Tango GPCR kit (Roth lab / Addgene)
Description: as §1

NPFF2 = target: T19, NPFF2 (Homo sapiens, UniProt Q9Y5X5)
T19 construct: purchased PRESTO-Tango GPCR kit (Roth lab / Addgene)
Description: as §1

P2RY11 = target: T20, P2RY11 (Homo sapiens, UniProt Q96G91)
T20 construct: purchased PRESTO-Tango GPCR kit (Roth lab / Addgene)
Description: as §1

PK1 = target: T21, PK1 (Homo sapiens, UniProt Q8TCW9)
T21 construct: purchased PRESTO-Tango GPCR kit (Roth lab / Addgene)
Description: as §1

GPR22 = target: T22, GPR22 (Homo sapiens, UniProt Q99680)
T22 construct: purchased PRESTO-Tango GPCR kit (Roth lab / Addgene)
Description: as §1

MRGPRG = target: T23, MRGPRG (Homo sapiens, UniProt Q86SM5)
T23 construct: purchased PRESTO-Tango GPCR kit (Roth lab / Addgene)
Description: as §1

P2RY12 = target: T24, P2RY12 (Homo sapiens, UniProt Q9H244)
T24 construct: purchased PRESTO-Tango GPCR kit (Roth lab / Addgene)
Description: as §1

TBXA2R = target: T25, TBXA2R (Homo sapiens, UniProt P21731)
T25 construct: purchased PRESTO-Tango GPCR kit (Roth lab / Addgene)
Description: as §1

CXCR3 = target: T26, CXCR3 (Homo sapiens, UniProt P49682)
T26 construct: purchased PRESTO-Tango GPCR kit (Roth lab / Addgene)
Description: as §1

GLP2R = target: T27, GLP2R (Homo sapiens, UniProt O95838)
T27 construct: purchased PRESTO-Tango GPCR kit (Roth lab / Addgene)
Description: as §1

P2RY13 = target: T28, P2RY13 (Homo sapiens, UniProt Q9BPV8)
T28 construct: purchased PRESTO-Tango GPCR kit (Roth lab / Addgene)
Description: as §1

BB3 = target: T29, BB3 (Homo sapiens, UniProt P32247)
T29 construct: purchased PRESTO-Tango GPCR kit (Roth lab / Addgene)
Description: as §1

GPR141 = target: T30, GPR141 (Homo sapiens, UniProt Q7Z602)
T30 construct: purchased PRESTO-Tango GPCR kit (Roth lab / Addgene)
Description: as §1

P2RY1 = target: T31, P2RY1 (Homo sapiens, UniProt P47900)
T31 construct: purchased PRESTO-Tango GPCR kit (Roth lab / Addgene)
Description: as §1

GPR37 = target: T32, GPR37 (Homo sapiens, UniProt O15354)
T32 construct: purchased PRESTO-Tango GPCR kit (Roth lab / Addgene)
Description: as §1

EDNRA = target: T33, EDNRA (Homo sapiens, UniProt P25101)
T33 construct: purchased PRESTO-Tango GPCR kit (Roth lab / Addgene)
Description: as §1

GAL1 = target: T34, GAL1 (Homo sapiens, UniProt P47211)
T34 construct: purchased PRESTO-Tango GPCR kit (Roth lab / Addgene)
Description: as §1

LPAR4 = target: T35, LPAR4 (Homo sapiens, UniProt Q99677)
T35 construct: purchased PRESTO-Tango GPCR kit (Roth lab / Addgene)
Description: as §1

T1 sequence (Q9HB89 whole entry): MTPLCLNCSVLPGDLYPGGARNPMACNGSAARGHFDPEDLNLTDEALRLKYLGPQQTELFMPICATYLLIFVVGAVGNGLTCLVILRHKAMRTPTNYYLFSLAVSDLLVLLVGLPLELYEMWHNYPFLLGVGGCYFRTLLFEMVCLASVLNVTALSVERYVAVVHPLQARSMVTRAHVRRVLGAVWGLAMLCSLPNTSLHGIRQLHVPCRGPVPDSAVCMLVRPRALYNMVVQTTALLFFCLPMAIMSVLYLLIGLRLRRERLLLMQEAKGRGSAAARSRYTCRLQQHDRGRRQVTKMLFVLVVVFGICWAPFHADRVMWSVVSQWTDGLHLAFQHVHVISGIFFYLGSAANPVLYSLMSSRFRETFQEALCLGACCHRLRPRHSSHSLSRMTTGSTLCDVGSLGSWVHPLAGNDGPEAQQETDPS
T16 sequence (Q14831 35-915): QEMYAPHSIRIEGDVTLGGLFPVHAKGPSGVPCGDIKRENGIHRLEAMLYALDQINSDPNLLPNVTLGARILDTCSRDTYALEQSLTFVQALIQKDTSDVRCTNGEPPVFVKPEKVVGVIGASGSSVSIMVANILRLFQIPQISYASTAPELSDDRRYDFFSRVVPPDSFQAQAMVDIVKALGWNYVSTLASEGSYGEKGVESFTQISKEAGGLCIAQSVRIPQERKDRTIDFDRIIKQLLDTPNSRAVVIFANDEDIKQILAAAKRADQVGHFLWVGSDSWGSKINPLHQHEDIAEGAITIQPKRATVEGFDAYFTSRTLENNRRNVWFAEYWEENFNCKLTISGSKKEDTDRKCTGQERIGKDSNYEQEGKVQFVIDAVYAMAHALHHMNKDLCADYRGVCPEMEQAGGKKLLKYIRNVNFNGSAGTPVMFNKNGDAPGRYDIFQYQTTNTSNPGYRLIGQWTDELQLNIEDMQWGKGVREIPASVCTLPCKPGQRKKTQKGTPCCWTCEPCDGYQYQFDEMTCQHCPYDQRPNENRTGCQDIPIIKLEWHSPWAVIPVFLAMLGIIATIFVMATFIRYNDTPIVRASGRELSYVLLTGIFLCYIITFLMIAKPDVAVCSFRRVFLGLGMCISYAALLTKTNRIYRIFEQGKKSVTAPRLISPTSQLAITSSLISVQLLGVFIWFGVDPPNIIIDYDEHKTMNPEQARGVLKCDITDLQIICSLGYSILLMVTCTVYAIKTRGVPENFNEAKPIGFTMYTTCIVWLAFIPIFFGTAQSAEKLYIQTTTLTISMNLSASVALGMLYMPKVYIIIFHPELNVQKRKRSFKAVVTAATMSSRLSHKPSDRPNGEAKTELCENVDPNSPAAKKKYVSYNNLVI
T2 sequence (P28223 whole entry): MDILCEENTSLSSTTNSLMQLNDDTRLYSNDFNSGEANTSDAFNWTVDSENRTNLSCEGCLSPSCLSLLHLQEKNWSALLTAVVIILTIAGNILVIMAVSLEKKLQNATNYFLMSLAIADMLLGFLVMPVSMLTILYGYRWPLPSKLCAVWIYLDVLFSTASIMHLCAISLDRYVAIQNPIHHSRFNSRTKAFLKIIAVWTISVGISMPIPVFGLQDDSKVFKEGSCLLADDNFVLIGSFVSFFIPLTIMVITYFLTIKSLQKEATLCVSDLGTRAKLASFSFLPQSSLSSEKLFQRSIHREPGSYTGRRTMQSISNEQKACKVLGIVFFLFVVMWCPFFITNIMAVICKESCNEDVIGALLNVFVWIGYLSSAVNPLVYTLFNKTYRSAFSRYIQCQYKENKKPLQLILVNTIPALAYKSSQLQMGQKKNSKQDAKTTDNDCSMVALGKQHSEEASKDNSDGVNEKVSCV
T28 sequence (Q9BPV8 whole entry, one chain of several): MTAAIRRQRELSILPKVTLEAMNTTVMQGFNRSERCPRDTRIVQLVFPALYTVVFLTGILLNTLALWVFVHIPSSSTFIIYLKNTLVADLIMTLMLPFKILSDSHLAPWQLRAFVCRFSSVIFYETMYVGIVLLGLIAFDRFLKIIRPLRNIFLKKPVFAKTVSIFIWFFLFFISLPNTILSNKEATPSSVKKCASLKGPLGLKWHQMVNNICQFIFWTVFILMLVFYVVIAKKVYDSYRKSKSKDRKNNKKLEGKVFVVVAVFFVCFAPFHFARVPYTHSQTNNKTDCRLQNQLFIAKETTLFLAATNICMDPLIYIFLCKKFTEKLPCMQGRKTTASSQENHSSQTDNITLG
T33 sequence (P25101 21-427): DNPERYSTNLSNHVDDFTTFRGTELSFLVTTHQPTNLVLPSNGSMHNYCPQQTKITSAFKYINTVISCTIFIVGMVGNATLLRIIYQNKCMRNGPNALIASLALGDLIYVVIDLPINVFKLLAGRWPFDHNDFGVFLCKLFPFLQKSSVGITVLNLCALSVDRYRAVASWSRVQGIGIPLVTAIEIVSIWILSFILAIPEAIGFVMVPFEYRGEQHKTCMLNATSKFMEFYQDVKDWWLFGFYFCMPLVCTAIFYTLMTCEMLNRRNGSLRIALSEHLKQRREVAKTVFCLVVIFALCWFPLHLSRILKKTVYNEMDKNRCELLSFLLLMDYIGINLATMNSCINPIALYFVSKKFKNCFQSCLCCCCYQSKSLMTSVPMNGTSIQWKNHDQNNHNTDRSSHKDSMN
T21 sequence (Q8TCW9 whole entry): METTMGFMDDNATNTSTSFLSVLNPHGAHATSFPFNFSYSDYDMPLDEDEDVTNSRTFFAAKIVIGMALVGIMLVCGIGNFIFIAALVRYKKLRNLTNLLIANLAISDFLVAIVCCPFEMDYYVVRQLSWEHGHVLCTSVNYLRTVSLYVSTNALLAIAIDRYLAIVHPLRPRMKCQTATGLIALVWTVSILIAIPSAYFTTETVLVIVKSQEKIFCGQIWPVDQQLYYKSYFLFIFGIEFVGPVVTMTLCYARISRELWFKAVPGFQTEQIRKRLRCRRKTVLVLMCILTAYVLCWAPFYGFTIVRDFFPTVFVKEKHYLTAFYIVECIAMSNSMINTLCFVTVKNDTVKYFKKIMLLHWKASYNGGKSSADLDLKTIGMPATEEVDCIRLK
T14 sequence (P20309 whole entry): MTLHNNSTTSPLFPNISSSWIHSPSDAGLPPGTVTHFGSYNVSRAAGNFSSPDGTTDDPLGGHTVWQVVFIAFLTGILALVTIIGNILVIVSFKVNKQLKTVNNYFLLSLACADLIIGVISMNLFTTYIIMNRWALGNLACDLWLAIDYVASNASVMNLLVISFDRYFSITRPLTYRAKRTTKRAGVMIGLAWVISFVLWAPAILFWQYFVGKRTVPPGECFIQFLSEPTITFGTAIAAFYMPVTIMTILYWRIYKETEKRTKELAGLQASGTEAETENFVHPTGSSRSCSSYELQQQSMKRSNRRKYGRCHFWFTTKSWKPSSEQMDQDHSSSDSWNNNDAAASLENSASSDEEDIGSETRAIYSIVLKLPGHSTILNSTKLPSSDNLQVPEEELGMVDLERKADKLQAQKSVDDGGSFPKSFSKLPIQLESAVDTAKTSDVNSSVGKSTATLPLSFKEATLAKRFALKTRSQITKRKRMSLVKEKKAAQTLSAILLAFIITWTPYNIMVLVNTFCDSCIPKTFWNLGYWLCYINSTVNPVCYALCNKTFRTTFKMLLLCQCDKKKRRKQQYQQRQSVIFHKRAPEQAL
T5 sequence (P21918 whole entry): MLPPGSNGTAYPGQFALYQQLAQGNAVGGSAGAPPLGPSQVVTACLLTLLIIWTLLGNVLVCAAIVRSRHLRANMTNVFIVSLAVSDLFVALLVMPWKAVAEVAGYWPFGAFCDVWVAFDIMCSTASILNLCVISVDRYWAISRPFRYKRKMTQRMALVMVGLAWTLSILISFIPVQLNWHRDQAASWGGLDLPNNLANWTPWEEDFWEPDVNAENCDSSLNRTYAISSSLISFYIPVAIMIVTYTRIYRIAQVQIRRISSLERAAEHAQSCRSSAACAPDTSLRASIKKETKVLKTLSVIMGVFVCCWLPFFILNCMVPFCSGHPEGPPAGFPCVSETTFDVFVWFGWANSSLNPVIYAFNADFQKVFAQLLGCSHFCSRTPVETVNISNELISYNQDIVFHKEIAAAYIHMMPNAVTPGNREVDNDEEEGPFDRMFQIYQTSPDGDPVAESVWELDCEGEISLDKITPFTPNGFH
T25 sequence (P21731 whole entry): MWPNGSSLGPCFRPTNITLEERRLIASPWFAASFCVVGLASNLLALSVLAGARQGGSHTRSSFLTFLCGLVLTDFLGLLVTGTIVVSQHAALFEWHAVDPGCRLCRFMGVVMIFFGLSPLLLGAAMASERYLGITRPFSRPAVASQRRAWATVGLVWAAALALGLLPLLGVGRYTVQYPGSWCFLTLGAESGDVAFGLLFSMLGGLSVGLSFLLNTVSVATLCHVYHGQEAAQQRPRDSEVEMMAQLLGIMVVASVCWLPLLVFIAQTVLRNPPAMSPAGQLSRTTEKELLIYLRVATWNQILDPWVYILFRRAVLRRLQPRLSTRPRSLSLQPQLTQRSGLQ
T17 sequence (O95977 whole entry): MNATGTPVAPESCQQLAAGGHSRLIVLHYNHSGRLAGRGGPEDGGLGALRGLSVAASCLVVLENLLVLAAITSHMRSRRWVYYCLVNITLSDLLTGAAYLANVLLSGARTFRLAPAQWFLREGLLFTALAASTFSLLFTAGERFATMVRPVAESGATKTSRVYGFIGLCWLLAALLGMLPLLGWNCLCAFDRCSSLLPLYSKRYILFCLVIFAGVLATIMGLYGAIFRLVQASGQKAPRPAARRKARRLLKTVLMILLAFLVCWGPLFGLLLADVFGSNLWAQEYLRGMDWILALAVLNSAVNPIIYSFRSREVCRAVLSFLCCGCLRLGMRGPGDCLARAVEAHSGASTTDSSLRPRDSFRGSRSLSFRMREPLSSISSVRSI

Compound: CC(C)Cc1ncc(CCCCNC(=N)N)[nH]c1=O [3-Homo]
- GPCR activation (heatmap value) (NMUR1): 0.8213
- GPCR activation (heatmap value) (HTR2A): -0.1726
- GPCR activation (heatmap value) (GRM6): -0.3175
- GPCR activation (heatmap value) (C3AR1): -0.001199
- GPCR activation (heatmap value) (DRD5): -0.03134
- GPCR activation (heatmap value) (RXFP4): -0.8625
- GPCR activation (heatmap value) (AVPR1A): 0.8531
- GPCR activation (heatmap value) (ELTD1): 0.08719
- GPCR activation (heatmap value) (GPR174): 0.4742
- GPCR activation (heatmap value) (GPR160): 0.53
- GPCR activation (heatmap value) (GPR37L1): 0.03037
- GPCR activation (heatmap value) (ADRA2C): 0.6954
- GPCR activation (heatmap value) (KISSPEPTIN-R): 1.206
- GPCR activation (heatmap value) (CHRM3): 0.5889
- GPCR activation (heatmap value) (GPR133): -0.3215
- GPCR activation (heatmap value) (GRM7): -0.0693
- GPCR activation (heatmap value) (S1PR4): 0.5734
- GPCR activation (heatmap value) (F2RL2): -0.002642
- GPCR activation (heatmap value) (NPFF2): -0.3895
- GPCR activation (heatmap value) (P2RY11): 0.1373
- GPCR activation (heatmap value) (PK1): -0.2718
- GPCR activation (heatmap value) (GPR22): -1.099
- GPCR activation (heatmap value) (MRGPRG): -0.5195
- GPCR activation (heatmap value) (P2RY12): 0.3372
- GPCR activation (heatmap value) (TBXA2R): 0.3386
- GPCR activation (heatmap value) (CXCR3): 0.846
- GPCR activation (heatmap value) (GLP2R): -0.3479
- GPCR activation (heatmap value) (P2RY13): 0.4611
- GPCR activation (heatmap value) (BB3): -0.2556
- GPCR activation (heatmap value) (GPR141): 0.2402
- GPCR activation (heatmap value) (P2RY1): 0.7917
- GPCR activation (heatmap value) (GPR37): -0.008314
- GPCR activation (heatmap value) (EDNRA): -0.554
- GPCR activation (heatmap value) (GAL1): -0.2703
- GPCR activation (heatmap value) (LPAR4): -0.163

Compound: CC(C)Cc1ncc(CCCNC(=N)N)[nH]c1=O [compound 3]
- GPCR activation (heatmap value) (NMUR1): -0.191
- GPCR activation (heatmap value) (HTR2A): -0.2048
- GPCR activation (heatmap value) (GRM6): 0.6597
- GPCR activation (heatmap value) (C3AR1): -0.2058
- GPCR activation (heatmap value) (DRD5): 1.05
- GPCR activation (heatmap value) (RXFP4): -0.6712
- GPCR activation (heatmap value) (AVPR1A): 0.9724
- GPCR activation (heatmap value) (ELTD1): 0.3234
- GPCR activation (heatmap value) (GPR174): 0.3321
- GPCR activation (heatmap value) (GPR160): 0.6688
- GPCR activation (heatmap value) (GPR37L1): -0.6695
- GPCR activation (heatmap value) (ADRA2C): 0.2266
- GPCR activation (heatmap value) (KISSPEPTIN-R): 0.3199
- GPCR activation (heatmap value) (CHRM3): -0.8614
- GPCR activation (heatmap value) (GPR133): -0.6324
- GPCR activation (heatmap value) (GRM7): 0.04754
- GPCR activation (heatmap value) (S1PR4): 0.1012
- GPCR activation (heatmap value) (F2RL2): 0.07678
- GPCR activation (heatmap value) (NPFF2): -0.5121
- GPCR activation (heatmap value) (P2RY11): -0.4085
- GPCR activation (heatmap value) (PK1): -0.4687
- GPCR activation (heatmap value) (GPR22): -1.5748
- GPCR activation (heatmap value) (MRGPRG): -0.5206
- GPCR activation (heatmap value) (P2RY12): 0.4559
- GPCR activation (heatmap value) (TBXA2R): 0.04774
- GPCR activation (heatmap value) (CXCR3): 0.3957
- GPCR activation (heatmap value) (GLP2R): 0.1898
- GPCR activation (heatmap value) (P2RY13): -0.6143
- GPCR activation (heatmap value) (BB3): 0.3176
- GPCR activation (heatmap value) (GPR141): -0.1192
- GPCR activation (heatmap value) (P2RY1): 0.6628
- GPCR activation (heatmap value) (GPR37): -0.4356
- GPCR activation (heatmap value) (EDNRA): -0.2835
- GPCR activation (heatmap value) (GAL1): -0.09983
- GPCR activation (heatmap value) (LPAR4): 0.3739
